Here are results for two molecules from patent publication US20070287674A1, “New treatment of diabetes mellitus” (HEJ RESEARCH INSTITUTE OF CHEMISTRY, priority 2006, published 2007).

For this experiment, the target named is α-glucosidase (E.C.3.2.1.20). Put plainly: α-Glucosidase enzyme inhibition assay (PNP-G substrate, spectrophotometric). The experiment is classed as biochemical. How it is done:
α-Glucosidase (E.C.3.2.1.20) enzyme inhibition assay was performed according to the slightly modified method of Matsui et al. α-glucosidase (E.C.3.2.1.20) from Saccharomyces species, purchased from Wako Pure Chemical Industries Ltd. (Wako 076-02841). The enzyme inhibition was measured spectrophotometrically at pH 6.9 and at 37° C. using 0.7 mM p-nitrophenyl-α-D-glucopyranoside (PNP-G) as a substrate and 500 m units/mL enzyme, in 50 mM sodium phosphate buffer containing 100 mM NaCl. […] The increment in absorption at 400 nm, due to the hydrolysis of PNP-G by α-glucosidase, was monitored continuously on microplate spectrophotometer (Spectra Max Molecular Devices, USA).) [T. Matsui, C. Yoshimoto, K. Osajima, T. Oki, and Y. Osajima. Biosci. Biotech. Biochem., 1996, 60, 2019].

[1] abbreviates: in vitro, pH 6.9, 37° C., 0.7 mM PNP-G substrate, 500 m units/mL enzyme, read-out: IC50 ± SEM.
The mark [2] stands for this setting: running text b24, unit inferred, read-out: IC50 (inhibitory effect on the enzyme).

Read-outs that look alike come from different tables or passages of the source.

Usually IC50 stands for the concentration at which inhibition is half-maximal. Turning to `C[C@@]12CCC[C@@](C)(C(=O)O[C@@H]3O[C@H](CO)[C@@H](O)[C@H](O)[C@H]3O)[C@H]1CC[C@@]13C[C@@H](CC[C@H]12)[C@@](O)(CO)C3` (single isomer, unassigned; ent-1) [Compound 1, 16, β-17-hydroxy-ent-1-α-auzan 19-O-D-glucopyranosyl ester], the 50% inhibitory concentration (IC50) by setting is: under setting [1], 407 ± 20 µM; under setting [2], 407 ± 20 µM.

Consider `C[C@@]12CCC[C@@](C)(C(=O)O)[C@H]1CC[C@@]13C[C@@H](CC[C@H]12)[C@@](O)(CO)C3` (single isomer, unassigned; ent-16) [Compound 2, ent-16,17-dihydroxy-(−)-kauran-19-oic acid], for which the IC50 runs as follows: under setting [1], 62.2 µM; under setting [2], 62.2 ± 0.008 µM.
